These results are taken from ChEMBL document CHEMBL1201862, “PubChem BioAssay data set” (2004).

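Test compounds were applied to cells in 96-well plates for 48 hours at 5 doses. Here, GI50 denotes the concentration required for 50% inhibition of growth.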 Activity calls are given as the source filed them. Cut-off read from the data, not from the text of the source: active = GI50 up to about 1.1 µM and inactive = higher. A value given as a limit tells only on which side of the number the result lay.

Among the test systems are SK-MEL-28; SW-620; Hs-578T; UACC-257; SF-295; BT-549; OVCAR-5; M14; SF-539; LOX IMVI; A498; MCF7; OVCAR-8; SNB-75; SK-MEL-2; K562; NCI-H23; 786-0; SF-268.
What all share (test): NCI anticancer screen, dose series, 48 h

For `COc1cc(S(=O)(=O)Nc2nc(-c3ccc(/N=C/c4ccccc4O)cc3)cs2)ccc1Cl`, the GI50 is 65.2 µM (inactive) in the experiment on SK-MEL-28; 79.8 µM (inactive) with SW-620; 38.2 µM (inactive) with Hs-578T; 35.9 µM (inactive) in the experiment with UACC-257; 36 µM (inactive) with SF-295; 37.4 µM (inactive) with BT-549. Besides, the GI50 was > 100 µM (inactive) with OVCAR-5; 30.1 µM (inactive) with M14; 39.4 µM (inactive) in the experiment with SF-539; 47 µM (inactive) with LOX IMVI; 41.7 µM (inactive) with A498; 27.8 µM (inactive) with MCF7. Moreover, the GI50 was 38.5 µM (inactive) with OVCAR-8; 51.1 µM (inactive) with SNB-75; 34.7 µM (inactive) in the experiment with SK-MEL-2; 30.4 µM (inactive) in the experiment with K562; 36.3 µM (inactive) in the experiment with NCI-H23; 48.2 µM (inactive) in the experiment with 786-0. In the experiment with SF-268, the GI50 is 32 µM (inactive).

For `O=C(O)CCC(=O)C(=O)O` [ALPHA-KETOGLUTARIC ACID], the GI50 in the experiment with SK-MEL-28, in the experiment with SW-620, in the experiment on Hs-578T, in the experiment with UACC-257, in the experiment with SF-295 and in the experiment on BT-549 was > 100 µM (inactive) each time. For the same compound, the GI50 with OVCAR-5, with M14, in the experiment with SF-539, in the experiment with LOX IMVI, in the experiment with A498 and in the experiment with MCF7 was > 100 µM (inactive) in each case. Besides, the GI50 in the experiment with OVCAR-8, with SNB-75, with SK-MEL-2, in the experiment with K562, in the experiment with NCI-H23 and in the experiment on 786-0 was > 100 µM (inactive) in each case. Also, in the experiment on SF-268, the GI50 is > 100 µM (inactive).

Regarding `O=C1N(CN2CCOCC2)CN(CN2CCOCC2)C(=O)N1Cc1ccc(-c2ccc(CN3C(=O)N(CN4CCOCC4)CN(CN4CCOCC4)C3=O)cc2)cc1`, the GI50 with SK-MEL-28 is 12.9 µM (inactive); with SW-620, 8.38 µM (inactive); in the experiment with Hs-578T, 26.2 µM (inactive); in the experiment with UACC-257, 13.8 µM (inactive); in the experiment with SF-295 it was 23.2 µM (inactive); in the experiment with BT-549, 5.87 µM (inactive). Besides, the GI50 in the experiment on OVCAR-5 is 20.2 µM (inactive); in the experiment on M14, 5.53 µM (inactive); in the experiment with SF-539, > 27.8 µM (inactive); in the experiment on LOX IMVI, 10 µM (inactive); in the experiment with A498 it was 15.3 µM (inactive); with MCF7, 4 µM (inactive). Also, the GI50 was 20.5 µM (inactive) in the experiment with OVCAR-8; 9.55 µM (inactive) with SNB-75; 6.55 µM (inactive) in the experiment with SK-MEL-2; 3.75 µM (inactive) in the experiment on K562; 10.6 µM (inactive) with NCI-H23; 9.16 µM (inactive) with 786-0. Moreover, the GI50 with SF-268 is 14.2 µM (inactive).

`O=c1cc(CNC2CC3CCC2C3)[nH]c(=O)[nH]1` (configuration not stated): the GI50 in the experiment on SK-MEL-28, in the experiment with SW-620, in the experiment with Hs-578T, with UACC-257, in the experiment on SF-295 and in the experiment on BT-549 was > 100 µM (inactive) in each case. Also, the GI50 with OVCAR-5, in the experiment on M14, in the experiment on SF-539, with LOX IMVI, in the experiment with A498 and in the experiment with MCF7 was > 100 µM (inactive) in each case. Moreover, the GI50 in the experiment with OVCAR-8, in the experiment with SNB-75, with SK-MEL-2, with K562, in the experiment with NCI-H23 and with 786-0 was > 100 µM (inactive) each time. Besides, the GI50 with SF-268 was > 100 µM (inactive).

Take `C=C(CN)CO[Si](C)(C)C(C)(C)C`: the GI50 in the experiment on SK-MEL-28, with SW-620, with Hs-578T, in the experiment on UACC-257, in the experiment on SF-295 and with BT-549 was > 100 µM (inactive) in each case. The GI50 in the experiment with OVCAR-5, with M14, in the experiment on SF-539, in the experiment on LOX IMVI, in the experiment on A498 and with MCF7 was > 100 µM (inactive) each time. Moreover, the GI50 in the experiment with OVCAR-8 is > 100 µM (inactive); with SNB-75, 72.1 µM (inactive); in the experiment on SK-MEL-2, > 100 µM (inactive); in the experiment on K562, > 100 µM (inactive); with NCI-H23, > 100 µM (inactive); in the experiment with 786-0 it was > 100 µM (inactive). The GI50 in the experiment with SF-268 is > 100 µM (inactive).

Take `CC(C)C[C@H](NC(=O)CCc1cccc2ccccc12)B(O)O`: the GI50 in the experiment with SK-MEL-28 was 0.716 µM (active); in the experiment on SW-620, 0.676 µM (active); in the experiment with Hs-578T, 0.857 µM (active); with UACC-257, 1.2 µM (inactive); with SF-295, 1.74 µM (inactive); with BT-549, 0.506 µM (active). Besides, the GI50 with OVCAR-5 is 0.908 µM (active); in the experiment with M14, 0.942 µM (active); in the experiment on SF-539 it was 0.333 µM (active); in the experiment with LOX IMVI, 0.461 µM (active); in the experiment with A498, 0.497 µM (active); in the experiment on MCF7 it was 0.56 µM (active). In addition, the GI50 is 2.81 µM (inactive) in the experiment on OVCAR-8; 7.98 µM (inactive) in the experiment on SNB-75; 1.03 µM (active) in the experiment with SK-MEL-2; 2.34 µM (inactive) in the experiment on K562; 1.16 µM (inactive) in the experiment with NCI-H23; 0.923 µM (active) with 786-0. Moreover, the GI50 in the experiment with SF-268 is 1.32 µM (inactive).

Turning to `CCC(=O)Nc1ccc(NCC(=O)Nc2ccc(Cl)cc2)cc1`, the GI50 was 19.9 µM (inactive) in the experiment on SK-MEL-28; 24.7 µM (inactive) in the experiment on SW-620; 37 µM (inactive) with Hs-578T; 16.6 µM (inactive) in the experiment on UACC-257; 14.4 µM (inactive) in the experiment on SF-295; 21.9 µM (inactive) in the experiment on BT-549. The GI50 in the experiment with OVCAR-5 was 13.9 µM (inactive); with M14, 15.3 µM (inactive); in the experiment with SF-539, 18.1 µM (inactive); with LOX IMVI, 13.1 µM (inactive); with A498, 17.7 µM (inactive); with MCF7, 14.3 µM (inactive). Also, the GI50 in the experiment on OVCAR-8 is 27.5 µM (inactive); in the experiment with SNB-75 it was 25.5 µM (inactive); in the experiment on SK-MEL-2 it was 14.8 µM (inactive); with K562 it was 24 µM (inactive); in the experiment with NCI-H23, 18.5 µM (inactive); in the experiment on 786-0, 17.2 µM (inactive). In the experiment on SF-268, the GI50 was 22.6 µM (inactive).

Take `O=C1CCc2ccc(O)c(c2)Oc2ccc(cc2)C(Sc2ccccc2)CCO1` (configuration not stated): the GI50 in the experiment on SK-MEL-28 is 15.4 µM (inactive); in the experiment on SW-620 it was 17 µM (inactive); in the experiment with Hs-578T, 14.7 µM (inactive); with UACC-257 it was 16 µM (inactive); in the experiment on SF-295 it was 17.4 µM (inactive); with BT-549, 14.4 µM (inactive). In addition, the GI50 is 17.1 µM (inactive) in the experiment on OVCAR-5; 15.1 µM (inactive) with M14; 15.8 µM (inactive) in the experiment with SF-539; 12.5 µM (inactive) in the experiment with LOX IMVI; 17.4 µM (inactive) with A498; 12.1 µM (inactive) in the experiment with MCF7. The GI50 with OVCAR-8 was 18.1 µM (inactive); in the experiment with SNB-75, 6.49 µM (inactive); with SK-MEL-2 it was 15.8 µM (inactive); in the experiment on K562 it was 15.7 µM (inactive); in the experiment on NCI-H23, 13.1 µM (inactive); in the experiment with 786-0 it was 16 µM (inactive). Further, in the experiment with SF-268, the GI50 is 15.7 µM (inactive).
